From patent publication US10246442B2, “4-Aminoquinazolin compounds as prolyl hydroxylase inhibitors” (JANSSEN PHARMACEUTICA NV, priority 2011, dated 2019) come the findings set out here.

One assay addresses PHD2181-417 (Homo sapiens (Human), UniProt Q9GZT9). The assay can be described thus: PHD enzymatic assay ([14C]-succinic acid production). It counts as biochemical. The following applies: purified PHD2181-417, HIF-1α peptide substrate, 30 min pre-incubation; average of results. Put shortly: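 Recombinant human PHD2 (aa 181-417, E. coli-expressed, tags cleaved) with peptide substrate (10 μM) and [5-14C]-2-oxoglutarate in Tris pH 7.5 with catalase, DTT and ascorbate, 10 min reaction after 30 min compound pre-incubation; compounds at 100 μM final, 1% DMSO. [14C]-succinate separated by DNP precipitation and beta-counted; IC50 from three-parameter logistic fit.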

Assay [1] concerns Erythropoietin secretion, Hep-3B cells. The assay can be described thus: Cellular assay: EPO secretion in Hep-3B cells. It counts as cell-based. The following applies: Homo sapiens, Hep3B, 100 μM compound, 24 hours, percent of EPO secretion relative to assay control compound 7-[(4-Chloro-phenyl)-(5-methyl-isoxazol-3-ylamino)-methyl]-quinolin-8-ol, read-out: Cellular % EPO Stimulation. Put shortly: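 Compounds at 100 μM final were added to Hep-3B cells 24 h after plating and left for 24 h. Secreted EPO in supernatant measured by MSD electrochemiluminescence immunoassay. Reported as percent EPO secretion relative to an 8-hydroxyquinoline reference control compound.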

Another assay deals with HIF1-α, Hela cells. The assay can be described thus: Cellular assay for HIF1-α in Hela cells. The note with it: Homo sapiens, 100 μM compound, 6 hours, percent of HIF stimulation relative to assay control compound 7-[(4-Chloro-phenyl)-(5-methyl-isoxazol-3-ylamino)-methyl]-quinolin-8-ol. It counts as cell-based. The method, then: Cellular Assay for HIF1-α
Hela cells (ATCC, Manassas, Va.) were plated in 96-well plates at 20,000 cells per well in 100 μl of DMEM containing 10% fetal bovine serum, 1% non-essential amino acids, 50 IU/mL of penicillin and 50 μg/mL of streptomycin (all cell culture reagents from Invitrogen, Carlsbad, Calif.). 24 hours after plating, changed media to 100 ul of DMEM without 10% fetal bovine serum, 1.1 μl of the stock solution for each compound was added and incubated for 6 hours. All compounds were tested with a final compound concentration of 100 μM. The supernatant was removed and the cells were lysed in 55 μl of MSD lysis buffer containing protease inhibitors. 50 μl of the cell lysate was then transferred to a blocked MSD human HIF-1α detection plate (Meso-Scale Discovery, Gaithersburg, Md., as per manufacturers protocol), and incubated at room temperature on an orbital shaker for 2 hour. After 3 washes in PBS, 25 μl of 20 nM anti-HIF1α a detection antibody was added and incubated for 1 hour at room temperature on an orbital shaker. After 3 washes in PBS, 150 μl of 1× read buffer was added and the plate was then read on a MSD SECTOR instrument. Data was analyzed by determining the percent of HIF stimulation in the presence of 100 μM compound relative to an assay control compound, 7-[(4-Chloro-phenyl)-(5-methyl-isoxazol-3-ylamino)-methyl]-quinolin-8-ol.

Chain of PHD2181-417 (Q9GZT9 181-417): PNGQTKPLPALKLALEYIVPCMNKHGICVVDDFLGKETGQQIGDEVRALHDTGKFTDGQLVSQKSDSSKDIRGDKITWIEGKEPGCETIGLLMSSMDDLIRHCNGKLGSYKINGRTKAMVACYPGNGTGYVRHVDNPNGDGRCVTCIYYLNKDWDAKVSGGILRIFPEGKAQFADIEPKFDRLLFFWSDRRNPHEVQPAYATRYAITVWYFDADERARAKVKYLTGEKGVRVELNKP

As for `CCN(CC)c1nc(-n2cc(C(=O)O)cn2)nc2ccc(N3CCCCC3)cc12` [Example 88, 1-(4-(Diethylamino)-6-(piperidin-1-yl)quinazolin-2-yl)-1H-pyrazole-4-carboxylic acid], the “Enzyme pIC50” value on PHD2181-417 came out at 7.0. The activation at 100 µM in assay [1] is 94%; in the assay with HIF1-α, Hela cells it was 122%.

For the compound `O=C(O)c1cnn(-c2nc(NC3CCCCC3)c3ccc(Oc4ccccc4)cc3n2)c1` [Example 97, 1-(4-(Cyclohexylamino)-7-phenoxyquinazolin-2-yl)-1H-pyrazole-4-carboxylic acid], on PHD2181-417, the “Enzyme pIC50” value worked out at 7.0. The same compound gave an activation at 100 µM in the assay on HIF1-α, Hela cells of 55%.

With `O=C(O)c1cnn(-c2nc(N3CCOCC3)c3ccc(Oc4ccccc4)cc3n2)c1` [Example 89, 1-(4-Morpholino-7-phenoxyquinazolin-2-yl)-1H-pyrazole-4-carboxylic acid], the “Enzyme pIC50” value on PHD2181-417 is listed as 6.2. This compound also had an activation at 100 µM with HIF1-α, Hela cells of 17%.

`N#CNc1nc(-n2cc(C(=O)O)cn2)nc2ccc(-c3ccccc3)cc12` [Example 50, 1-(4-Cyanamido-6-phenylquinazolin-2-yl)-1H-pyrazole-4-carboxylic acid]: the “Enzyme pIC50” value at PHD2181-417 is reported as 7.1. The compound also gave an activation at 100 µM in the assay on HIF1-α, Hela cells of 9.6%.

Regarding `CC(C)C1CCN(c2nc(-n3cc(C(=O)O)cn3)nc3cc(Oc4ccccc4)ccc23)CC1` [Example 85, 1-(4-(4-isopropylpiperidin-1-yl)-7-phenoxyquinazolin-2-yl)-1H-pyrazole-4-carboxylic acid], the “Enzyme pIC50” value on PHD2181-417 amounted to 6.8. The compound further yielded an activation at 100 µM in the assay with HIF1-α, Hela cells of 1.7%.

As to `CCN(C)c1nc(-n2cc(C(=O)O)cn2)nc2cc(Oc3ccccc3)ccc12` [Example 94, 1-(4-(Ethyl(methyl)amino)-7-phenoxyquinazolin-2-yl)-1H-pyrazole-4-carboxylic acid], the “Enzyme pIC50” value on PHD2181-417 is 7.2. Moreover, the activation at 100 µM in the assay on HIF1-α, Hela cells was determined as 83%.

With `CN(C)c1nc(-n2cc(C(=O)O)cn2)nc2cc(-c3ccccc3)ccc12` [Example 80, 1-(4-(Dimethylamino)-7-phenylquinazolin-2-yl)-1H-pyrazole-4-carboxylic acid], the “Enzyme pIC50” value at PHD2181-417 came to 6.0. Also, the activation at 100 µM with HIF1-α, Hela cells stood at 7.8%.

With `O=C(O)c1cnn(-c2nc(NC3CC3)c3cc(-c4ccccc4)ccc3n2)c1` [Example 51, 1-(4-(Cyclopropylamino)-6-phenylquinazolin-2-yl)-1H-pyrazole-4-carboxylic acid], the “Enzyme pIC50” value at PHD2181-417 stood at 6.5. The activation at 100 µM in the assay on HIF1-α, Hela cells came out at 40%.

As for `CS(=O)(=O)Nc1nc(-n2cc(C(=O)O)cn2)nc2ccc(C3CCCCC3)cc12` [Example 40, 1-(6-Cyclohexyl-4-(methylsulfonamido)quinazolin-2-yl)-1H-pyrazole-4-carboxylic acid], the “Enzyme pIC50” value on PHD2181-417 worked out at 6.6. This compound had an activation at 100 µM in the assay with HIF1-α, Hela cells of 6.7%.

`O=C(O)c1cnn(-c2nc(NC3CCOCC3)c3cc(-c4ccccc4)ccc3n2)c1` [Example 56, 1-(6-Phenyl-4-((tetrahydro-2H-pyran-4-yl)amino)quinazolin-2-yl)-1H-pyrazole-4-carboxylic acid]: the “Enzyme pIC50” value on PHD2181-417 was determined as 6.2. The activation at 100 µM in the assay on HIF1-α, Hela cells worked out at 25%.

As to `O=C(O)c1cnn(-c2nc(N3CCSCC3)c3ccc(Oc4ccccc4)cc3n2)c1` [Example 90, 1-(7-Phenoxy-4-thiomorpholinoquinazolin-2-yl)-1H-pyrazole-4-carboxylic acid], the “Enzyme pIC50” value on PHD2181-417 came to 6.3. The compound further came in with an activation at 100 µM in the assay with HIF1-α, Hela cells of 7.7%.

On to `O=C(O)c1cnn(-c2nc(NCC3CCCCC3)c3cc(C4CCCCC4)ccc3n2)c1` [Example 39, 1-(6-Cyclohexyl-4-((cyclohexylmethyl)amino)quinazolin-2-yl)-1H-pyrazole-4-carboxylic acid], for which, on PHD2181-417, the “Enzyme pIC50” value is 6.9. In the assay on HIF1-α, Hela cells, this compound gave an activation at 100 µM of 6.1%.

With `CC(=O)NC1CCN(c2nc(-n3cc(C(=O)O)cn3)nc3cc(F)c(Oc4c(C)cccc4C)cc23)CC1` [Example 21, 1-(4-(4-Acetamidopiperidin-1-yl)-6-(2,6-dimethylphenoxy)-7-fluoroquinazolin-2-yl)-1H-pyrazole-4-carboxylic acid], the “Enzyme pIC50” value at PHD2181-417 turned out to be 6.9. The compound also gave an activation at 100 µM with HIF1-α, Hela cells of 62%.

With `N#CC1CCN(c2nc(-n3cc(C(=O)O)cn3)nc3ccc(C4CCCCC4)cc23)CC1` [Example 30, 1-(4-(4-Cyanopiperidin-1-yl)-6-cyclohexylquinazolin-2-yl)-1H-pyrazole-4-carboxylic acid], on PHD2181-417, the “Enzyme pIC50” value was determined as 6.9. This compound displayed an activation at 100 µM in the assay with HIF1-α, Hela cells of 77%.

On to `O=C(O)c1cnn(-c2nc(NC3CCOCC3)c3cc(Oc4ccccc4)ccc3n2)c1` [Example 76, 1-(6-Phenoxy-4-((tetrahydro-2H-pyran-4-yl)amino)quinazolin-2-yl)-1H-pyrazole-4-carboxylic acid], for which the “Enzyme pIC50” value on PHD2181-417 stood at 6.5. The compound also displayed an activation at 100 µM with HIF1-α, Hela cells of 19%.

Regarding `CN1CCCN(c2nc(-n3cc(C(=O)O)cn3)nc3ccc(-c4ccccc4)cc23)CC1` [Example 57, 1-(4-(4-Methyl-1,4-diazepan-1-yl)-6-phenylquinazolin-2-yl)-1H-pyrazole-4-carboxylic acid], at PHD2181-417, the “Enzyme pIC50” value came out at 6.4. This compound also showed an activation at 100 µM in the assay with HIF1-α, Hela cells of 30%.

Consider `O=C(O)c1cnn(-c2nc(N3CCOCC3)c3cc(-c4ccccc4)ccc3n2)c1` [Example 58, 1-(4-Morpholino-6-phenylquinazolin-2-yl)-1H-pyrazole-4-carboxylic acid], for which the “Enzyme pIC50” value at PHD2181-417 was 6.5. The activation at 100 µM in the assay on HIF1-α, Hela cells came to 49%.

For the compound `CC(C)(C)Nc1nc(-n2cc(C(=O)O)cn2)nc2ccc(Oc3ccccc3)cc12` [Example 72, 1-(4-(tert-Butylamino)-6-phenoxyquinazolin-2-yl)-1H-pyrazole-4-carboxylic acid], on PHD2181-417, the “Enzyme pIC50” value came to 6.7. For the same compound, in the assay on HIF1-α, Hela cells, the activation at 100 µM is 32%.

Regarding `O=C(O)c1cnn(-c2nc(NCC3CCCCC3)c3ccc(Oc4ccccc4)cc3n2)c1` [Example 84, 1-(4-((Cyclohexylmethyl)amino)-7-phenoxyquinazolin-2-yl)-1H-pyrazole-4-carboxylic acid], the “Enzyme pIC50” value at PHD2181-417 worked out at 6.8. In the assay with HIF1-α, Hela cells, the activation at 100 µM stood at 4.6%.

`CCN(CC)c1nc(-n2cc(C(=O)O)cn2)nc2ccc(Oc3ccccc3)cc12` [Example 74, 1-(4-(Diethylamino)-6-phenoxyquinazolin-2-yl)-1H-pyrazole-4-carboxylic acid]: the “Enzyme pIC50” value at PHD2181-417 was found to be 7.3. In the assay on HIF1-α, Hela cells, the activation at 100 µM is 81%.

For the compound `O=C(O)c1cnn(-c2nc(N3CCCC3)c3ccc(Oc4ccccc4)cc3n2)c1` [Example 78, 1-(7-Phenoxy-4-(pyrrolidin-1-yl)quinazolin-2-yl)-1H-pyrazole-4-carboxylic acid], on PHD2181-417, the “Enzyme pIC50” value is 7.3. In addition, the activation at 100 µM in assay [1] is 38%; in the assay with HIF1-α, Hela cells it was 64%.

Take `O=C(O)c1cnn(-c2nc(Nc3ccccc3Cl)c3cc(C4CCCCC4)ccc3n2)c1` [Example 29, 1-(4-((2-Chlorophenyl)amino)-6-cyclohexylquinazolin-2-yl)-1H-pyrazole-4-carboxylic acid]: the “Enzyme pIC50” value at PHD2181-417 turned out to be 7.1. In the assay on HIF1-α, Hela cells, this compound displayed an activation at 100 µM of 7.8%.

As to `CCCCN(CCCC)c1nc(-n2cc(C(=O)O)cn2)nc2cc(Oc3ccccc3)ccc12` [Example 92, 1-(4-(Dibutylamino)-7-phenoxyquinazolin-2-yl)-1H-pyrazole-4-carboxylic acid], the “Enzyme pIC50” value on PHD2181-417 turned out to be 7.1. Besides, the activation at 100 µM in the assay on HIF1-α, Hela cells was 4.1%.

For the compound `O=C(O)c1cnn(-c2nc(NCC3CCCCC3)c3cc(-c4ccccc4)ccc3n2)c1` [Example 49, 1-(4-((Cyclohexylmethyl)amino)-6-phenylquinazolin-2-yl)-1H-pyrazole-4-carboxylic acid], on PHD2181-417, the “Enzyme pIC50” value amounted to 6.9. Further, the activation at 100 µM with HIF1-α, Hela cells was 3.8%.
